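Dose response: 5 concentrations. Exposure: 48 h. Format: 96-well plates. Endpoint: linear interpolation; highest concentration if not reached. GI50 is the concentration that inhibits growth by half.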 The source made the active and inactive calls. No stated cut-off is given here; in the data, active = GI50 up to about 1.1 µM and inactive = higher.
What was measured:
Assay in all cases: DTP human tumour cell line panel, 48 h
DLD-1 = system: DLD-1
DMS-114 = system: DMS-114
DMS-273 = system: DMS-273
KM-20L2 = system: KM-20L2
LXFL 529 = system: LXFL 529
M19-MEL = system: M19-MEL
RXF 631 = system: RXF 631
SNB-78 = system: SNB-78
XF498 = system: XF498

SMILES	GI50 (DLD-1)	GI50 (DMS-114)	GI50 (DMS-273)	GI50 (KM-20L2)	GI50 (LXFL 529)	GI50 (M19-MEL)	GI50 (RXF 631)	GI50 (SNB-78)	GI50 (XF498)
CCOC(=O)C(CCCNC(=O)OC(C)(C)C)N(Cc1ccc(OC)cc1OC)C(=O)CC(=O)CP(=O)(OCC)OCC (centres undefined)	> 100 µM (inactive)	21 µM (inactive)	> 100 µM (inactive)	> 100 µM (inactive)	> 100 µM (inactive)	> 100 µM (inactive)	> 100 µM (inactive)	–	–
COC(=O)C1=C(c2cc(OC)c(OC)c(OC)c2)O[C@H](c2ccc3c(c2)OCO3)[C@H]1COC(C)=O	26.3 µM (inactive)	–	26.6 µM (inactive)	30.3 µM (inactive)	20.3 µM (inactive)	20.7 µM (inactive)	42.3 µM (inactive)	26.7 µM (inactive)	33.6 µM (inactive)
O=c1c2cc3c(cc2c2cccc4c2n1CCC4)OCO3	26.8 µM (inactive)	–	28.1 µM (inactive)	45.7 µM (inactive)	37.5 µM (inactive)	86.7 µM (inactive)	–	68.5 µM (inactive)	–
O=C(CSc1nnc(Cc2ccccc2)o1)Nc1ccc(Cl)cc1[N+](=O)[O-]	–	–	19.7 µM (inactive)	22.5 µM (inactive)	17.1 µM (inactive)	17 µM (inactive)	–	20 µM (inactive)	17.5 µM (inactive)
CCOC(=O)CNC(SC)=C(C#N)C#N	> 100 µM (inactive)	> 100 µM (inactive)	> 100 µM (inactive)	> 100 µM (inactive)	> 100 µM (inactive)	> 100 µM (inactive)	–	> 100 µM (inactive)	> 100 µM (inactive)
CCOC(=O)C(C(=O)OCC)=c1sc(=C(C(=O)OCC)C(=O)OCC)s1	> 100 µM (inactive)	–	> 100 µM (inactive)	> 100 µM (inactive)	> 100 µM (inactive)	> 100 µM (inactive)	–	> 100 µM (inactive)	–
O=C1C=C(Nc2ccccc2C(=O)c2ccccc2)c2ccccc2C1=O	> 100 µM (inactive)	36.1 µM (inactive)	> 100 µM (inactive)	> 100 µM (inactive)	> 100 µM (inactive)	9.14 µM (inactive)	–	> 100 µM (inactive)	–
C/C(=N\NC(=S)N1CCCCCC1)c1nccnc1C	1.42 µM (inactive)	< 0.01 µM (active)	< 0.01 µM (active)	< 0.01 µM (active)	< 0.01 µM (active)	0.174 µM (active)	–	0.885 µM (active)	1.43 µM (inactive)
Cc1[nH]c2c(C)cccc2c1C1Cc2ccccc2N1 (centres undefined)	28.8 µM (inactive)	18.2 µM (inactive)	–	17.1 µM (inactive)	17.6 µM (inactive)	21.7 µM (inactive)	–	–	21.1 µM (inactive)
COc1cc2noc(-c3ccccc3)c2cc1OC	64 µM (inactive)	35.9 µM (inactive)	39.6 µM (inactive)	37.4 µM (inactive)	68.4 µM (inactive)	89.5 µM (inactive)	20.4 µM (inactive)	73.5 µM (inactive)	–
Cc1c(CC/C(=N\Nc2ccc([N+](=O)[O-])cc2[N+](=O)[O-])c2ccccc2)c2ccccc2n1C	> 100 µM (inactive)	> 100 µM (inactive)	> 100 µM (inactive)	> 100 µM (inactive)	> 100 µM (inactive)	> 100 µM (inactive)	> 100 µM (inactive)	> 100 µM (inactive)	> 100 µM (inactive)
COc1ccc(N2C(=O)/C(=C/c3ccc(N(CCC#N)CCC#N)cc3C)N=C2c2cc([N+](=O)[O-])ccc2Cl)cc1	4.51 µM (inactive)	3.32 µM (inactive)	3.3 µM (inactive)	2.31 µM (inactive)	7.53 µM (inactive)	17.1 µM (inactive)	–	6.9 µM (inactive)	2.34 µM (inactive)
CCOC(=O)C(=O)Nc1nc2ccc(C)cc2s1	> 100 µM (inactive)	> 100 µM (inactive)	> 100 µM (inactive)	> 100 µM (inactive)	> 100 µM (inactive)	> 100 µM (inactive)	> 100 µM (inactive)	87.7 µM (inactive)	> 100 µM (inactive)
O=C(CCc1nnc2s/c(=C\c3ccc(Cl)cc3Cl)c(=O)n12)Nc1cc(Cl)c(Cl)cc1Cl	> 10 µM (inactive)	> 10 µM (inactive)	> 10 µM (inactive)	> 10 µM (inactive)	> 10 µM (inactive)	> 10 µM (inactive)	71.4 µM (inactive)	84.1 µM (inactive)	> 10 µM (inactive)
CCCCCCCCCCCCCC(=O)NCC(OCC)OCC	> 100 µM (inactive)	> 100 µM (inactive)	> 100 µM (inactive)	> 100 µM (inactive)	> 100 µM (inactive)	> 100 µM (inactive)	–	> 100 µM (inactive)	> 100 µM (inactive)
COc1ccc(C(Cc2cc(OC)c(OC)c(OC)c2)C(=O)O)cc1 (centres undefined)	51.1 µM (inactive)	41 µM (inactive)	52.5 µM (inactive)	56 µM (inactive)	–	45.7 µM (inactive)	> 100 µM (inactive)	60.1 µM (inactive)	40.5 µM (inactive)
Cc1cc(Br)ccc1NC1=CC(=O)C(=O)c2ccccc21	> 100 µM (inactive)	19.8 µM (inactive)	31.4 µM (inactive)	> 100 µM (inactive)	55.7 µM (inactive)	15.2 µM (inactive)	–	> 100 µM (inactive)	31.6 µM (inactive)
N#CC(C(=N/NC(N)=S)/C(=N\NC(N)=S)C(C#N)c1ccccc1)c1ccccc1 (centres undefined)	> 10 µM (inactive)	> 10 µM (inactive)	> 10 µM (inactive)	> 10 µM (inactive)	> 10 µM (inactive)	> 10 µM (inactive)	> 10 µM (inactive)	> 10 µM (inactive)	> 10 µM (inactive)
CN1CCc2ccccc2C(C(=O)c2ccc3c(c2)OCO3)C1=O (centres undefined)	> 100 µM (inactive)	39.3 µM (inactive)	> 100 µM (inactive)	> 100 µM (inactive)	> 100 µM (inactive)	> 100 µM (inactive)	> 100 µM (inactive)	–	70.8 µM (inactive)
COc1ccc(S(=O)(=O)N/N=C/CN2C(=O)c3ccccc3C2=O)cc1	> 100 µM (inactive)	–	> 100 µM (inactive)	> 100 µM (inactive)	> 100 µM (inactive)	> 100 µM (inactive)	–	–	> 100 µM (inactive)
O=C1c2ccccc2N2OC3(N4CCCC4)CCCCC3C12c1ccccc1 (centres undefined)	20 µM (inactive)	15.2 µM (inactive)	17 µM (inactive)	43.5 µM (inactive)	14.5 µM (inactive)	10.1 µM (inactive)	–	16.6 µM (inactive)	22.4 µM (inactive)
COc1cc(/C=C2\CCc3ccccc3C2=O)cc(OC)c1OC	13.8 µM (inactive)	12.5 µM (inactive)	11.9 µM (inactive)	17.2 µM (inactive)	15.2 µM (inactive)	15.9 µM (inactive)	22.4 µM (inactive)	24 µM (inactive)	17.9 µM (inactive)

— ChEMBL document CHEMBL1201862, “PubChem BioAssay data set” (2004)
